Data: the supplement of paper PMC10307832

Legend:
Assay in all cases: relative viability (nuclei count vs DMSO), 5 days (fraction); higher = more cells survive
[1] = compound: CC1=C(N=C(N=C1N)[C@H](CC(=O)N)NC[C@@H](C(=O)N)N)C(=O)N[C@@H]([C@H](C2=CN=CN2)OC3C(C(C(C(O3)CO)O)O)OC4C(C(C(C(O4)CO)O)OC(=O)N)O)C(=O)N[C@H](C)[C@H]([C@H](C)C(=O)N[C@@H]([C@@H](C)O)C(=O)NCCC5=NC(=CS5)C6=NC(=CS6)C(=O)NCCC[S+](C)C)O [Bleomycin] + O=C(c1cc(Cc2n[nH]c(=O)c3ccccc23)ccc1F)N1CCN(C(=O)C2CC2)CC1 [Olaparib] (partner 8 µM); settings: main component drawn
Summary of the method: (§1)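 Relative viability was taken as the ratio of nuclei in treated wells to nuclei in vehicle wells. Lung cancer cell lines in 1536-well plates received compounds by pin tool one day after seeding, either one drug alone or a fixed anchor-drug dose plus five library-drug doses (not always all listed) in √10 steps. Nuclei were counted on 4× images after 5 days of treatment, and values are medians of duplicate plates.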

[2] = compound: CC1=C(N=C(N=C1N)[C@H](CC(=O)N)NC[C@@H](C(=O)N)N)C(=O)N[C@@H]([C@H](C2=CN=CN2)OC3C(C(C(C(O3)CO)O)O)OC4C(C(C(C(O4)CO)O)OC(=O)N)O)C(=O)N[C@H](C)[C@H]([C@H](C)C(=O)N[C@@H]([C@@H](C)O)C(=O)NCCC5=NC(=CS5)C6=NC(=CS6)C(=O)NCCC[S+](C)C)O [Bleomycin] + CC(C)C[C@H](NC(=O)[C@H](Cc1ccccc1)NC(=O)c1cnccn1)B(O)O [Bortezomib] (partner 0.002 µM); settings: main component drawn
Summary of the method: as §1

[3] = compound: CC1=C(N=C(N=C1N)[C@H](CC(=O)N)NC[C@@H](C(=O)N)N)C(=O)N[C@@H]([C@H](C2=CN=CN2)OC3C(C(C(C(O3)CO)O)O)OC4C(C(C(C(O4)CO)O)OC(=O)N)O)C(=O)N[C@H](C)[C@H]([C@H](C)C(=O)N[C@@H]([C@@H](C)O)C(=O)NCCC5=NC(=CS5)C6=NC(=CS6)C(=O)NCCC[S+](C)C)O [Bleomycin] + CS(=O)(=O)N1CCN(Cc2cc3nc(-c4cccc5[nH]ncc45)nc(N4CCOCC4)c3s2)CC1 [Pictilisib] (partner 1 µM); settings: main component drawn
Summary of the method: as §1

[4] = compound: COc1cc([C@@H]2c3cc4c(cc3[C@@H](O[C@@H]3O[C@@H]5CO[C@@H](C)O[C@H]5[C@H](O)[C@H]3O)[C@H]3COC(=O)[C@H]23)OCO4)cc(OC)c1O [Etoposide] + Cc1nc(Nc2ncc(C(=O)Nc3c(C)cccc3Cl)s2)cc(N2CCN(CCO)CC2)n1 [Dasatinib] (partner 0.075 µM)
Summary of the method: as §1

Cell Line	relative viability ([1]; first compound 0.01 µM)	relative viability ([1]; first compound 0.03162 µM)	relative viability ([1]; first compound 0.1 µM)	relative viability ([1]; first compound 0.3162 µM)	relative viability ([1]; first compound 1 µM)	relative viability ([2]; first compound 0.01 µM)	relative viability ([2]; first compound 0.03162 µM)	relative viability ([2]; first compound 0.1 µM)	relative viability ([2]; first compound 0.3162 µM)	relative viability ([2]; first compound 1 µM)	relative viability ([3]; first compound 0.01 µM)	relative viability ([3]; first compound 0.03162 µM)	relative viability ([3]; first compound 0.1 µM)	relative viability ([3]; first compound 0.3162 µM)	relative viability ([3]; first compound 1 µM)	relative viability ([4]; first compound 0.01 µM)	relative viability ([4]; first compound 0.03162 µM)	relative viability ([4]; first compound 0.1 µM)	relative viability ([4]; first compound 0.3162 µM)	relative viability ([4]; first compound 1 µM)
NCI-H1437	0.571	0.593	0.499	0.397	0.378	0.519	0.44	0.452	0.121	0.303	0.47	0.407	0.24	0.146	0.224	0.585	0.443	0.283	0.29	0.165
SW 1573	0.291	0.336	0.292	0.153	0.123	0.7	0.812	0.719	0.305	0.26	0.43	0.361	0.459	0.254	0.174	0.43	0.525	0.212	0.155	0.0993
H3255	0.491	0.519	0.495	0.373	0.344	0.664	0.925	0.666	0.283	0.244	0.442	0.414	0.431	0.287	0.276	0.424	0.367	0.345	0.306	0.274
NCI-H1792	0.34	0.447	0.487	0.183	0.11	0.871	0.958	0.663	0.323	0.283	0.301	0.231	0.217	0.102	0.122	0.699	0.695	0.658	0.72	0.549
NCI-H1650	0.285	0.183	0.167	0.156	0.158	0.2	0.216	0.194	0.167	0.172	0.408	0.318	0.255	0.139	0.125	0.302	0.381	0.315	0.211	0.127
NCI-H2126	0.863	0.933	0.932	0.739	0.67	1.06	1.08	1.08	0.7	0.947	0.498	0.471	0.501	0.391	0.365	0.668	0.568	0.434	0.485	0.244
HCC-366	0.157	0.134	0.126	0.0346	0.0334	0.736	0.34	0.293	0.0464	0.0446	0.133	0.128	0.09	0.0658	0.0477	0.644	0.774	0.36	0.178	0.0448
NCI-H838	0.432	0.269	0.199	0.138	0.148	0.67	0.204	0.23	0.0877	0.152	0.414	0.28	0.18	0.156	0.202	0.338	0.295	0.219	0.271	0.285
LU99A	0.209	0.24	0.202	0.141	0.118	0.763	0.83	0.602	0.167	0.128	0.249	0.233	0.191	0.152	0.137	0.427	0.727	0.262	0.395	0.142
NCI-H650	0.333	0.463	0.336	0.264	0.175	0.548	0.697	0.569	0.259	0.214	0.628	0.764	0.728	0.483	0.25	0.457	0.472	0.342	0.372	0.215
HCC-78	0.592	0.617	0.652	0.488	0.487	0.426	0.372	0.458	0.29	0.31	0.201	0.213	0.204	0.199	0.159	0.435	0.39	0.33	0.334	0.152
NCI-H1755	0.782	0.79	0.833	0.639	0.599	0.854	0.957	0.827	0.384	0.659	0.429	0.498	0.385	0.282	0.247	0.433	0.452	0.469	0.413	0.394
NCI-H322M	0.612	0.823	0.675	0.545	0.447	1.07	1.13	1.36	0.708	0.592	0.49	0.493	0.491	0.4	0.421	0.272	0.237	0.232	0.26	0.254
PC-3 [JPC-3]	0.932	1.13	0.825	0.481	0.486	0.748	0.926	0.791	0.446	0.448	0.681	0.681	0.768	0.569	0.466	0.915	0.915	0.871	0.961	0.927
